From patent US10759785B2, “Compounds” (ENTERPRISE THERAPEUTICS LIMITED, priority 2016, dated 2020)
Structures can show the parent of a compound that is named as a salt.

Experiments:
Format in all cases: in vitro ADME
[1] = Microsomal stability (human microsomes); details: 0.5 mg/mL protein, 1 mM NADPH, 37° C.; for half-life at 1 μM: pH 7.4, 1 μM test compound, read-out: Averages. Mic Half Life Human; for Averages. Mic Half Life Human: 1 μM test compound
Procedure: Example 28—Microsomal Stability
Microsomes (rat and human) were obtained from Bioreclamation. Test compound stock solutions in DMSO (10 mM) were diluted with DMSO to 2 mM. Further dilution was completed to achieve a 100 μM stock (final concentrations; 91.5% Acetonitrile: 8.5% DMSO). Final test compound concentration in incubation was 1 μM (<0.1% DMSO). The following probe substrates were used: verapamil, propranolol, metoprolol and phenacetin (rat) at a final incubation concentration of 1 μM. Assay buffer—Solution 1: 17.4 g potassium phosphate dibasic anhydrous (K2HPO4, 0.1 M) dissolved in 1 L deionised water. Solution 2: 13.6 g potassium phosphate monobasic anhydrous (KH2PO4, 0.1 M) dissolved in 1 L deionised water. Potassium phosphate solutions 1 and 2 were combined to form a pH 7.42 solution at 37° C. pH 7.4 with 2 mM magnesium chloride. NADPH (10 mM)—diluted in deionised water. Frozen microsomes were thawed at 37° C. Microsomes were diluted in assay buffer to achieve a final protein concentration of 0.5 mg/mL and 1 mM NADPH. The following procedure was completed on a Perkin Elmer Janus robotic platform in 96 well format: The microsomal incubation plate was transferred to a heater shaker at 300 rpm and solution heated to 37° C. for 10 min pre-warm. A no co-factor control at 0 and 45 min and one replicates of each test compound was included in every assay. Microsomes were incubated at 37° C., on a shaker set at 300 rpm throughout the assay. At each timepoint (0, 5, 15, 30, 45 min) 50 μL of sample was removed from the 96-well and added to 200 μL of quench solution (acetonitrile containing 0.1% formic acid and imipramine/labetalol, 200 nM). Samples were diluted 1:1 with water using the Janus Robot and analysed by LC-MS/MS.

[2] = Hepatic stability (human cryopreserved hepatocytes); details: 1×10^6 cells/mL, 37° C.; for half-life at 1 μM: cryopreserved hepatocytes, pH 7.4, 1 μM test compound, read-out: Averages. Hep Half Life Human; for Averages. Hep Half Life Human: 1 μM test compound
Procedure: (§1) Example 29—Hepatic Stability
(§2) Cryopreserved hepatocytes (rat and human) were obtained from Bioreclamation. Test compound stock solutions in DMSO (10 mM) were diluted with DMSO to 4 mM. Further dilution was completed to achieve a 100 μM stock (5 μL of 4 mM in 195 μL of 50:50 DMSO:hepatocyte buffer). Final test compound concentration in incubation was 1 μM. The following probe substrates were used: testosterone and carbamazepine at a final incubation concentration of 1 μM. Hepatocyte buffer was prepared (Williams E media containing phenol red and Glutamax™, 15 mM HEPES, warmed to 37° C., pH7.4 with NaOH). Cells were removed from liquid nitrogen, thawed in a waterbath, decanted into 50 mL of pre-warmed Cryopreserved Hepatocyte Recovery Media (LifeTechnologies) and centrifuged. Supernatant fraction was removed, cells were re-suspended in hepatocyte buffer and counted by trypan blue exclusion. Cell viability of >80% was required for all assays. Cells were re-suspended to 1×10^6/mL and 198 μL cell suspension added to each 96-well. 2 μL of 100 μM compound stock solution was added to relevant wells to initiate the incubation. A no cell control and two replicates of each test compound was included in every assay. Cells were incubated at 37° C., on a shaker set at 300 rpm. At each timepoint (0, 15, 30, 45, 60, 90 min) 20 μL of sample was removed from the 96-well and added to 80 μL of quench solution (acetonitrile containing 0.1% formic acid and imipramine/labetalol, 200 nM). Samples were diluted 1:1 with water using the Janus Robot and analysed by LC-MS/MS.

[3] = Hepatic stability (rat cryopreserved hepatocytes); details: pH 7.4, 1 μM test compound, 1×10^6 cells/mL, 37° C., read-out: Averages. Hep Half Life Rat
Procedure: as §1, §2

half-life at 1 μM [1] [min] | half-life at 1 μM [2] [min] | half-life at 1 μM [3] [min] | Averages. Mic Half Life Human [1] [min] | Averages. Hep Half Life Human [2] [min] | SMILES
> 138 | 137 | 46 | – | – | CCn1c(CNC(=O)c2nc(Br)cnc2N)[n+](CC)c2ccc(C(=O)N[C@H]3CCOC3=O)cc21 [Example 18, 2-{[(3-amino-6-bromopyrazin-2-yl)formamido]methyl}-1,3-diethyl-6-{[(3S)-2-oxooxolan-3-yl]carbamoyl}-1H-1,3-benzodiazol-3-ium formate]
> 138 | > 240 | 59 | – | – | CCn1c(CNC(=O)c2nc(Br)cnc2N)[n+](CC)c2ccc(OCCN)cc21.Cl.[Cl-] [Example 25, 2-{[(3-Amino-6-bromopyrazin-2-yl)formamido]methyl}-6-(2-aminoethoxy)-1,3-diethyl-1H-1,3-benzodiazol-3-ium hydrochloride chloride]
5 | – | – | – | – | CCn1c(CNC(=O)c2nc(SC)cnc2N)[n+](C)c2ccc(OC)cc21.[I-] [Example 9, 2-({[3-amino-6-(methylsulfanyl)pyrazin-2-yl]formamido}methyl)-1-ethyl-6-methoxy-3-methyl-1H-1,3-benzodiazol-3-ium iodide]
135 | 101 | 32 | – | – | CCn1c(CNC(=O)c2nc(Br)cnc2N)[n+](CC)c2ccc(C(=O)N[C@@H]3CCOC3=O)cc21 [Example 17, 2-{[(3-amino-6-bromopyrazin-2-yl)formamido]methyl}-1,3-diethyl-6-{[(3R)-2-oxooxolan-3-yl]carbamoyl}-1H-1,3-benzodiazol-3-ium formate]
92 | 66 | 25 | – | – | CCn1c(CNC(=O)c2nc(Br)cnc2N)[n+](CC)c2ccc(-c3cnn(C4CCNCC4)c3)cc21.Cl.[I-] [Example 21, 2-{[(3-amino-6-bromopyrazin-2-yl)formamido]methyl}-1,3-diethyl-6-[1-(piperidin-4-yl)-1H-pyrazol-4-yl]-1H-1,3-benzodiazol-3-ium hydrochloride iodide]
– | – | 14 | 138 | 240 | CCn1c(CNC(=O)c2nc(Br)cnc2N)[n+](C)c2ccc(C(F)(F)F)cc21.[I-] [Example 13, 2-{[(3-amino-6-bromopyrazin-2-yl)formamido]methyl}-1-ethyl-3-methyl-6-(trifluoromethyl)-1H-1,3-benzodiazol-3-ium iodide]
> 138 | 67 | 90 | – | – | CCn1c(CNC(=O)c2nc(Br)cnc2N)[n+](CC)c2ccc(-c3cnn(C4CCN(C(=N)N)CC4)c3)cc21.O=CO.O=C[O-] [Example 22, 2-{[(3-amino-6-bromopyrazin-2-yl)formamido]methyl}-6-[1-(1-carbamimidoylpiperidin-4-yl)-1H-pyrazol-4-yl]-1,3-diethyl-1H-1,3-benzodiazol-3-ium formic acid formate]
86 | – | 16 | – | 240 | CCn1c(CNC(=O)c2nc(Br)cnc2N)[n+](CCOCCOCCO)c2ccc(OC)cc21.O=C[O-] [Example 4, 2-{[(3-amino-6-bromopyrazin-2-yl)formamido]methyl}-1-ethyl-3-{2-[2-(2-hydroxyethoxy)ethoxy]ethyl}-6-methoxy-1H-1,3-benzodiazol-3-ium formate]
> 138 | 72 | 124 | – | – | CCn1c(CNC(=O)c2nc(Br)cnc2N)[n+](CC)c2ccc(-c3cnn(C4CCN(C[C@H](O)[C@@H](O)[C@H](O)[C@H](O)CO)CC4)c3)cc21.O=CO.[Cl-] [Example 23, 2-{[(3-amino-6-bromopyrazin-2-yl)formamido]methyl}-1,3-diethyl-6-(1-{1-[(2S,3R,4R,5R)-2,3,4,5,6-pentahydroxyhexyl]piperidin-4-yl}-1H-pyrazol-4-yl)-1H-1,3-benzodiazol-3-ium formic acid chloride]
23 | – | – | – | – | CCc1cnc(N)c(C(=O)NCc2n(CC)c3cc(OC)ccc3[n+]2C)n1.[I-] [Example 8, 2-{[(3-amino-6-ethylpyrazin-2-yl)formamido]methyl}-1-ethyl-6-methoxy-3-methyl-1H-1,3-benzodiazol-3-ium iodide]
– | – | 17 | – | 240 | CCn1c(CNC(=O)c2nc(Br)cnc2N)[n+](Cc2ccccc2)c2ccc(C(F)(F)F)cc21.O=C[O-] [Example 19, 2-{[(3-Amino-6-bromopyrazin-2-yl)formamido]methyl}-3-benzyl-1-ethyl-6-(trifluoromethyl)-1H-1,3-benzodiazol-3-ium formate]
12 | 68 | 5 | – | – | CCn1c(CNC(=O)c2nc(Cl)cnc2N)[n+](C)c2ccc(OC)cc21.[I-] [Example 5, 2-{[(3-amino-6-chloropyrazin-2-yl)formamido]methyl}-1-ethyl-6-methoxy-3-methyl-1H-1,3-benzodiazol-3-ium iodide]
> 138 | 232 | 23 | – | – | CCn1c(CNC(=O)c2nc(C#N)cnc2N)[n+](CC)c2ccc(OC)cc21 [Example 26, 2-{[(3-amino-6-cyanopyrazin-2-yl)formamido]methyl}-1,3-diethyl-6-methoxy-1H-1,3-benzodiazol-3-ium formate]
– | 154 | 14 | 138 | – | CCn1c(CNC(=O)c2nc(Br)cnc2N)[n+](CC)c2ccc(C(=O)OC)cc21.[I-] [Example 15, 2-{[(3-amino-6-bromopyrazin-2-yl)formamido]methyl}-1,3-diethyl-6-(methoxycarbonyl)-1H-1,3-benzodiazol-3-ium iodide]
58 | 90 | 5 | – | – | CCn1c(CNC(=O)c2nc(Br)cnc2N)[n+](CC)c2ccc(OC)cc21.O=C[O-] [Example 2, 2-{[(3-amino-6-bromopyrazin-2-yl)formamido]methyl}-1,3-diethyl-6-methoxy-1H-1,3-benzodiazol-3-ium formate]
111 | – | – | – | – | CCn1c(CNC(=O)c2nc(Br)cnc2N)[n+](C)c2ccc(F)cc21.O=C[O-] [Example 12, 2-{[(3-amino-6-bromopyrazin-2-yl)formamido]methyl}-1-ethyl-6-fluoro-3-methyl-1H-1,3-benzodiazol-3-ium formate]

SMILES | half-life at 1 μM [1] [min] | half-life at 1 μM [2] [min] | half-life at 1 μM [3] [min] | Averages. Mic Half Life Human [1] [min] | Averages. Hep Half Life Human [2] [min]
CCn1c(CNC(=O)c2nc(Br)cnc2N)[n+](CC)c2ccc(-c3cnn(C4CCN(C(=O)OC(C)(C)C)CC4)c3)cc21.[I-] [Example 20, 2-{[(3-amino-6-bromopyrazin-2-yl)formamido]methyl}-6-(1-{1-[(tert-butoxy)carbonyl]piperidin-4-yl}-1H-pyrazol-4-yl)-1,3-diethyl-1H-1,3-benzodiazol-3-ium iodide] | > 138 | 70 | 20 | – | –
CCn1c(CNC(=O)c2nc(Br)cnc2N)[n+](CC)c2ccc(OCCNC(=O)OC(C)(C)C)cc21.O=C[O-] [Example 24, 2-{[(3-amino-6-bromopyrazin-2-yl)formamido]methyl}-6-(2-{[(tert-butoxy)carbonyl]amino}ethoxy)-1,3-diethyl-1H-1,3-benzodiazol-3-ium formate] | 59 | 73 | 42 | – | –
